Experimental data: patent US6737383B1, “Herbicidal oxadiazolidines” (priority 1999, dated 2004)

Columns and labels:
soybean = experiment: Test B pre/postemergence soybean; format: in vivo, Glycine max
Method in brief: (§1)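 Herbicidal effect was estimated by eye on a ten-point control scale after plants spent twelve to sixteen days in a greenhouse following soil or foliar treatment. Foliar sprays targeted plants at one to four leaves; all doses were formulated in a non-phytotoxic solvent with surfactant.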

crabgrass = experiment: Test B pre/postemergence crabgrass; format: in vivo, Digitaria sanguinalis
Method in brief: as §1

surinam grass = experiment: Test B pre/postemergence surinam grass; format: in vivo, Brachiaria decumbens
Method in brief: as §1

pigweed = experiment: Test B pre/postemergence pigweed; format: in vivo, Amaranthus retroflexus
Method in brief: as §1

wheat = experiment: Test B pre/postemergence wheat; format: in vivo, Triticum aestivum
Method in brief: as §1

bedstraw = experiment: Test B pre/postemergence bedstraw; format: in vivo, Galium aparine; settings: Preemergence; for Bedstraw plant response rating: scale 0 to 10, 0 is no effect, 10 is complete control
Method in brief: as §1

velvetleaf = experiment: Test B pre/postemergence velvetleaf; format: in vivo, Abutilon theophrasti
Method in brief: as §1

morningglory = experiment: Test B pre/postemergence morningglory; format: in vivo, Ipomoea hederacea
Method in brief: as §1

giant foxtail = experiment: Test B pre/postemergence giant foxtail; format: in vivo, Setaria faberii
Method in brief: as §1

sugar beet = experiment: Test B pre/postemergence sugar beet; format: in vivo, Beta vulgaris
Method in brief: as §1

wild oat = experiment: Test B pre/postemergence wild oat; format: in vivo, Avena fatua
Method in brief: as §1

rape = experiment: Test B pre/postemergence rape; format: in vivo, Brassica napus
Method in brief: as §1

corn = experiment: Test B pre/postemergence corn; format: in vivo, Zea mays
Method in brief: as §1

cocklebur = experiment: Test B pre/postemergence cocklebur; format: in vivo, Xanthium strumarium
Method in brief: as §1

blackgrass = experiment: Test B pre/postemergence blackgrass; format: in vivo, Alopecurus myosuroides
Method in brief: as §1

purple nutsedge = experiment: Test B pre/postemergence purple nutsedge; format: in vivo, Cyperus rotundus
Method in brief: as §1

[1] = Postemergence, Rate 62 g/ha, scale of 0 to 10, 0 is no effect, 10 is complete control
[2] = Postemergence, Rate 125 g/ha, scale 0 to 10, 0 is no effect, 10 is complete control
[3] = Postemergence, Rate 500 g/ha, scale 0 to 10, 0 is no effect, 10 is complete control
[4] = Preemergence, Rate 62 g/ha, scale of 0 to 10 where 0 is no effect and 10 is complete control
[5] = Preemergence, Rate 125 g/ha, scale 0 to 10, 0 is no effect, 10 is complete control
[6] = Preemergence, Rate 500 g/ha, scale of 0 to 10 where 0 is no effect and 10 is complete control
[7] = Postemergence, Rate 250 g/ha, scale 0 to 10
[8] = Preemergence, Rate 250 g/ha, scale 0 to 10, 0 is no effect, 10 is complete control

COCCOCn1c(=O)on(C(=O)N(c2ccc(F)cc2F)C(C)C)c1=O [Compound 505]
Soybean plant response rating (soybean; [1]): 1 | Soybean plant response rating (soybean; [2]): 2 | Plant response rating, Soybean (soybean; [3]): 5 | Plant response rating, Soybean (soybean; [4]): 0 | Soybean plant response rating (soybean; [5]): 0 | Soybean plant response rating (soybean; [6]): 5 | Crabgrass plant response rating (crabgrass; [1]): 7 | Crabgrass plant response rating (crabgrass; [2]): 7 | Crabgrass plant response rating (crabgrass; [7]): 9 | Plant response rating, Crabgrass (crabgrass; [3]): 9 | Crabgrass plant response rating (crabgrass; [5]): 6 | Crabgrass plant response rating (crabgrass; [6]): 8 | B. signalgrass plant response rating (surinam grass; [1]): 0 | B. signalgrass plant response rating (surinam grass; [2]): 3 | B. signalgrass plant response rating (surinam grass; Postemergence, Rate 250 g/ha, scale 0 to 10, 0 no effect, 10 complete control): 8 | Plant response rating, B. signalgrass (surinam grass; [3]): 8 | Plant response rating, B. signalgrass (surinam grass; [4]): 0 | B. signalgrass plant response rating (surinam grass; [8]): 2 | B. signalgrass plant response rating (surinam grass; Preemergence, Rate 500 g/ha, scale 0 to 10, 0 is no effect, 10 is complete control): 6 | Redroot pigweed plant response rating (pigweed; [1]): 0 | Redroot pigweed plant response rating (pigweed; [2]): 0 | Plant response rating, Redroot pigweed (pigweed; [3]): 9 | Plant response rating, Redroot pigweed (pigweed; [4]): 9 | Redroot pigweed plant response rating (pigweed; [5]): 10 | Redroot pigweed plant response rating (pigweed; [6]): 10 | Wheat plant response rating (wheat; [1]): 0 | Wheat plant response rating (wheat; [2]): 2 | Plant response rating, Wheat (wheat; [3]): 4 | Plant response rating, Wheat (wheat; [4]): 3 | Wheat plant response rating (wheat; [5]): 7 | Wheat plant response rating (wheat; [6]): 8 | Plant response rating, Bedstraw (bedstraw; Rate 62 g/ha, scale of 0 to 10 where 0 is no effect and 10 is complete control): 0 | Bedstraw plant response rating (bedstraw; Rate 125 g/ha): 0 | Bedstraw plant response rating (bedstraw; Rate 250 g/ha): 8 | Bedstraw plant response rating (bedstraw; Rate 500 g/ha): 9 | Velvetleaf plant response rating (velvetleaf; [1]): 0 | Velvetleaf plant response rating (velvetleaf; [2]): 0 | Plant response rating, Velvetleaf (velvetleaf; [3]): 4 | Plant response rating, Velvetleaf (velvetleaf; [4]): 0 | Velvetleaf plant response rating (velvetleaf; [5]): 2 | Velvetleaf plant response rating (velvetleaf; [6]): 10 | Morningglory plant response rating (morningglory; [1]): 5 | Morningglory plant response rating (morningglory; [2]): 5 | Plant response rating, Morningglory (morningglory; [3]): 7 | Plant response rating, Morningglory (morningglory; [4]): 0 | Morningglory plant response rating (morningglory; [5]): 0 | Morningglory plant response rating (morningglory; [6]): 3 | Giant foxtail plant response rating (giant foxtail; [1]): 8 | Giant foxtail plant response rating (giant foxtail; [2]): 8 | Plant response rating, Giant foxtail (giant foxtail; [3]): 9 | Plant response rating, Giant foxtail (giant foxtail; [4]): 9 | Giant foxtail plant response rating (giant foxtail; [5]): 9 | Giant foxtail plant response rating (giant foxtail; [6]): 10 | Sugarbeets plant response rating (sugar beet; [1]): 3 | Sugarbeets plant response rating (sugar beet; [2]): 5 | Plant response rating, Sugarbeets (sugar beet; [3]): 9 | Plant response rating, Sugarbeets (sugar beet; [4]): 3 | Sugarbeets plant response rating (sugar beet; [5]): 3 | Sugarbeets plant response rating (sugar beet; [6]): 8 | Wild oats plant response rating (wild oat; [1]): 0 | Wild oats plant response rating (wild oat; [2]): 2 | Plant response rating, Wild oats (wild oat; [3]): 3 | Plant response rating, Wild oats (wild oat; [4]): 2 | Wild oats plant response rating (wild oat; [5]): 2 | Wild oats plant response rating (wild oat; [6]): 9 | Rape plant response rating (rape; [1]): 0 | Rape plant response rating (rape; [2]): 0 | Plant response rating, Rape (rape; [3]): 2 | Plant response rating, Rape (rape; [4]): 4 | Rape plant response rating (rape; [5]): 4 | Rape plant response rating (rape; [6]): 9 | Corn plant response rating (corn; [1]): 0 | Corn plant response rating (corn; [2]): 3 | Corn plant response rating (corn; [7]): 6 | Plant response rating, Corn (corn; [3]): 6 | Plant response rating, Corn (corn; [4]): 2 | Corn plant response rating (corn; [5]): 2 | Corn plant response rating (corn; [6]): 6 | Cocklebur plant response rating (cocklebur; [1]): 0 | Cocklebur plant response rating (cocklebur; [2]): 0 | Cocklebur plant response rating (cocklebur; [7]): 0 | Plant response rating, Cocklebur (cocklebur; [3]): 4 | Plant response rating, Cocklebur (cocklebur; [4]): 0 | Cocklebur plant response rating (cocklebur; [5]): 0 | Cocklebur plant response rating (cocklebur; [8]): 0 | Cocklebur plant response rating (cocklebur; [6]): 2 | Blackgrass plant response rating (blackgrass; [1]): 2 | Blackgrass plant response rating (blackgrass; [2]): 4 | Blackgrass plant response rating (blackgrass; [7]): 7 | Plant response rating, Blackgrass (blackgrass; [3]): 7 | Plant response rating, Blackgrass (blackgrass; [4]): 0 | Blackgrass plant response rating (blackgrass; [5]): 6 | Blackgrass plant response rating (blackgrass; [8]): 7 | Blackgrass plant response rating (blackgrass; [6]): 6 | Nutsedge plant response rating (purple nutsedge; [1]): 0 | Nutsedge plant response rating (purple nutsedge; [2]): 2 | Plant response rating, Nutsedge (purple nutsedge; [3]): 2 | Plant response rating, Nutsedge (purple nutsedge; [4]): 3 | Nutsedge plant response rating (purple nutsedge; [5]): 10 | Nutsedge plant response rating (purple nutsedge; [6]): 8
